Like-named read-outs stand apart in the source and are kept apart here.
Columns and labels:
[1] = system: NB-1643 human neuroblastoma cells; assay: Loewe additivity (CHALICE) synergy screen, CellTiter-Glo viability, 7x7 dose matrix; format: cell-based; details: NB-1643 (R1275Q), Table 2; for Max Combo Effect: in % (unit assumed)
Method: The synergistic interaction of drug combinations were assessed based on the Loewe Additivity Model using Chalice software [CombinatoRx, Cambridge Mass.]). […] 27:659-66. The software compares the response (% inhibition or % reduction of cell viability) of drug treatment from a combination of two agents to the response of the agents acting alone, against the drug-with-itself dose-additive reference model (the Loewe Additivity Model). Deviations from dose additives can be assessed numerically with a “synergy score” which quantifies the overall strength of combination effect. A synergy score >0 indicates a synergistic combination. In order to ensure only strongly synergistic combinations were selected, the acceptance criteria were set at a higher level. Strongly synergistic combinations were defined as having both a synergy score >2, a synergy score that is twice as large as the background (non-synergy) model would predict, and a maximum efficacy of >100, a value equivalent to stasis, as determined from the growth inhibition calculation.
After treatment, cell viabilty (quantity of viable cells) for each test mixtures were determined by the CellTiter-Glo® (CTG) luminescent cell viability assay (Promega) described in the Assay section, infra. […] The response to treatment (% reduction of cell viability) was analyzed using Chalice software [CombinatoRx, Cambridge Mass.]). Data evaluation and graph generation were performed using Microsoft Excel software and Chalice software.
The combinations were tested in duplicate using a 7×7 dose matrix block in 1536 well format with a cell proliferation readout as described in the Assay section infra.
All synergy calculations were performed using CHALICE software package from Zalicus and potential synergistic interactions between compound combinations were assessed using the Excess Inhibition 2D matrix according to the Loewe additivity model and were reported as synergy score (Table 10) (Lehar et al). Strongly synergistic combination were identified as having both (1) a synergy score greater than 2, a synergy score that is twice as large as the background (non-synergy) model would predict, and (2) a maximum efficacy of >100, a value roughly equivalent to stasis, as determined from the growth inhibition calculation.
Cell viability were determined by measuring cellular ATP content using the CellTiter-Glo® (CTG) luminescent cell viability assay (Promega). […] Reduced and enhanced luminescent signal values (responses) were calculated relative to untreated (control) cells, and the calculated signal value proportional to the cell viability.
Synergistic combinations were identified based on the Loewe Addivity Model. […]

[2] = system: SHSY5Y neuroblastoma cells (F1174L); assay: xCELLigence in vitro growth inhibition and Chou-Talalay combination index; format: cell-based; details: Homo sapiens, SH-SY5Y, single agent
[3] = system: NB1691 neuroblastoma cells (WT); assay: as above; format: cell-based; details: Homo sapiens
[4] = system: SKBE2C neuroblastoma cells (WT); assay: xCELLigence in vitro growth inhibition (IC50, Dm); format: cell-based; details: Homo sapiens, Neuroblastoma cell, single agent
Method: (§1) In vitro inhibitory activity was determined in five (5) neuroblastoma cell lines with a 96-well Real-Time Cell Electronic Sensing xCELLigence system (ACEA, San Diego, Calif.) which measures a “cell index”. Cell index is derived from alterations in electrical impedance as cells interact with the biocompatible microelectrode surface in each well to measure substrate adherent proliferation. Depending on the growth kinetics, the following cell densities were plated per well: NB1643: 20,000; SHSY5Y: 6,000; SKBE2C:10,000; NBEBC1: 11,000; NB1691: 30,000. After 24 hours, the plated cells were treated in triplicate with the test compound, each dose as indicated or with DMSO vehicle control. […] At 72 hours after drug exposure, the cell index was recorded.
(§2) The IC50 was calculated using GraphPad Prism 5.0 four parameter variable slope fitting.
Drug combination effects and quantification of synergy were determined using the Chou-Talalay combination index method (Trends Pharmacol Sci 4, 450-454) and CalcuSyn v2 software (Biosoft, MO) in four neuroblastoma cell lines. Cells were plated and in vitro proliferation was measured using the xCELLigence system as described above.
The anti-proliferation potency of each individual agent was estimated by the median-effect dose, Dm. […] Fa=0 is determined based on DMSO control by the dose, and Fa=1 is a full response (no viable cells left) and. • Fu: fraction unaffected by dose where fu=1−fa.

[5] = system: SKNFI neuroblastoma cells (WT); assay: xCELLigence in vitro growth inhibition (IC50); format: cell-based; details: Homo sapiens, SK-N-FI, 72 hours, single agent
Method: as §1, §2

[6] = system: NB1643 (R1275Q) human neuroblastoma cells; assay: ApoTox-Glo Triplex assay, viability and caspase 3/7 apoptosis; format: cell-based; details: 72 hours, 1/4 to 4 times IC50, equipotent ratio
Method: The effect of treatment with the combinations of the invention on cell viability and apoptosis were evaluated in three human neuroblastoma cell lines: NB1643 (R1275Q), SH-SY5Y (F1174L) and EBC1 (WT) using the ApoTox-Glo Triplex assay. For confirmation, the treatment effect on cell viability was also evaluated in NB1643 (R1275Q) using the CellTitre-Glo (CTG) Luminescent Cell Viability assay. The assays were described, infra.
The test mixtures were evaluated by 72 hours after dosing, and the results were plotted in FIGS. 11A-C, 12A-C, 13A-C and 14A-C.
In vitro cell viability and Caspase-Glo 3/7 were simultaneously assayed using the ApoTox-Glo Triplex Assay (Promega, Calif.) in three neuroblastoma cell lines. […] After 72 hours of drug exposure, the fluorogenic substrate GF-AFC was added. The test mixture was incubated for 10 minutes and AFC fluorescence was measured at 380-400nm excitation and 505 nm emission.
Following measurement of live cell fluorescence, a luminogenic Caspase-Glo 3/7 substrate and luciferase was added to the same wells. Luminescence was measured after a 30 minutes incubation period. Luciferin is released following cleavage of the substrate by caspase-3/7, and thereby the luminescent signal is proportional to caspase activity.

[7] = system: human neuroblastoma SH-SY5Y (F1174L ALK mutation) xenografts; details: CB17 SCID mice; A1 50 mg/kg, B 250 mg/kg reduced to 187.5 mg/kg on day 5; p.o. gavage
Method: Enhancement of efficacy studies were conducted in vivo on CB17 SCID mice against human neuroblastoma SH-SY5Y (bearing an F1174L ALK mutation) xenografts.
CB17 scid female mice (Taconic Farms) were used to propagate subcutaneously implanted neuroblastoma tumors. Tumor diameters were measured twice per week with electronic calipers, and tumor volumes were calculated with the spheroid formula, (p/6)×d3, where d represents mean diameter. […] Mice were euthanized when tumor volume exceeded 3000 mm^3 or at the study conclusion at 7 weeks. A mixed-effects linear model was used to assess tumor volume over time between treatment and vehicle groups, controlling for tumor size at enrollment. Event-free survival probabilities were estimated using the Kaplan-Meier method and survival curves were compared using the log-rank test (SAS 9.3 and Stata 12.1). An event was defined as time to tumor volume ≧3000 mm^3, and tumor volumes after week 7 were censored. Mice were maintained under protocols and conditions approved by our institutional animal care and use committee.

[8] = read-out: Dm (median-effect dose)
[9] = NB-1691, 72 hours, single agent, read-out: IC50
[10] = NB-1691, single agent, read-out: Dm (median-effect dose)

SMILES	Synergy score (Mean) [1]	Max Combo Effect [1]	IC50 ([2]; 72 hours, read-out: IC50) [nM]	IC50 [2, 8] [nM]	IC50 [3, 9] [nM]	IC50 [3, 10] [nM]	IC50 ([4]; 72 hours, read-out: IC50) [nM]	IC50 [4, 8] [nM]	IC50 [5] [µM]	Cell viability (cell death) and apoptosis [6]	Survival of the mice / deaths [7]	Tumor volume / tumor growth [7]	IC50 ([5]; unit in cell) [µM]
Cc1cc(Nc2ncc(Cl)c(Nc3ccccc3S(=O)(=O)C(C)C)n2)c(OC(C)C)cc1C1CCNCC1 [Compound A1, 5-chloro-N2-(2-isopropoxy-5-methyl-4-(piperidin-4-yl)phenyl)-N4-[2-(propane-2-sulfonyl)-phenyl]-pyrimidine-2,4-diamine]	1.231	151.1	963	1500	1930	762	603	350	3.48	effective in causing cell death and apoptosis	euthanized due to the size of their tumor	only a slight tumor growth delay compared to vehicle control	
CN(C)C(=O)c1cc2cnc(Nc3ccc(N4CCNCC4)cn3)nc2n1C1CCCC1 [Compound B, 7-cyclopentyl-N,N-dimethyl-2-((5-(piperazin-1-yl)pyridin-2-yl)amino)-7H-pyrrolo[2,3-d]pyrimidine-6-carboxamide]	0.929	76.4	111	1500	315	2650	146	446		only slightly effective	one of the mice died on day 14	slower tumor growth	> 6
